In the NIST ThermoML archive (doi:10.1021/acs.jced.5b00317):
± gives the expanded uncertainty stated by the source.

Conditions: 101 kPa, Liquid, Sing-around technique in a fixed-path interferometer

speed of sound (313.15 K): 1529.2 ± 0.77 m/s | speed of sound (318.15 K): 1536.8 ± 0.78 m/s
Compound: O [water]
